Experimental data from ChEMBL document CHEMBL4808148, “HDAC6 screening dataset using tau-based substrate in an enzymatic assay yields selective inhibitors and activators” (2021).

Legend:
[1] = target: Protein deacetylase HDAC6 (Homo sapiens) (UniProt Q9UBN7); details: at 10 µM
[2] = target: T1, Protein deacetylase HDAC6 (Homo sapiens, UniProt Q9UBN7)
T1 sequence (Q9UBN7 whole entry): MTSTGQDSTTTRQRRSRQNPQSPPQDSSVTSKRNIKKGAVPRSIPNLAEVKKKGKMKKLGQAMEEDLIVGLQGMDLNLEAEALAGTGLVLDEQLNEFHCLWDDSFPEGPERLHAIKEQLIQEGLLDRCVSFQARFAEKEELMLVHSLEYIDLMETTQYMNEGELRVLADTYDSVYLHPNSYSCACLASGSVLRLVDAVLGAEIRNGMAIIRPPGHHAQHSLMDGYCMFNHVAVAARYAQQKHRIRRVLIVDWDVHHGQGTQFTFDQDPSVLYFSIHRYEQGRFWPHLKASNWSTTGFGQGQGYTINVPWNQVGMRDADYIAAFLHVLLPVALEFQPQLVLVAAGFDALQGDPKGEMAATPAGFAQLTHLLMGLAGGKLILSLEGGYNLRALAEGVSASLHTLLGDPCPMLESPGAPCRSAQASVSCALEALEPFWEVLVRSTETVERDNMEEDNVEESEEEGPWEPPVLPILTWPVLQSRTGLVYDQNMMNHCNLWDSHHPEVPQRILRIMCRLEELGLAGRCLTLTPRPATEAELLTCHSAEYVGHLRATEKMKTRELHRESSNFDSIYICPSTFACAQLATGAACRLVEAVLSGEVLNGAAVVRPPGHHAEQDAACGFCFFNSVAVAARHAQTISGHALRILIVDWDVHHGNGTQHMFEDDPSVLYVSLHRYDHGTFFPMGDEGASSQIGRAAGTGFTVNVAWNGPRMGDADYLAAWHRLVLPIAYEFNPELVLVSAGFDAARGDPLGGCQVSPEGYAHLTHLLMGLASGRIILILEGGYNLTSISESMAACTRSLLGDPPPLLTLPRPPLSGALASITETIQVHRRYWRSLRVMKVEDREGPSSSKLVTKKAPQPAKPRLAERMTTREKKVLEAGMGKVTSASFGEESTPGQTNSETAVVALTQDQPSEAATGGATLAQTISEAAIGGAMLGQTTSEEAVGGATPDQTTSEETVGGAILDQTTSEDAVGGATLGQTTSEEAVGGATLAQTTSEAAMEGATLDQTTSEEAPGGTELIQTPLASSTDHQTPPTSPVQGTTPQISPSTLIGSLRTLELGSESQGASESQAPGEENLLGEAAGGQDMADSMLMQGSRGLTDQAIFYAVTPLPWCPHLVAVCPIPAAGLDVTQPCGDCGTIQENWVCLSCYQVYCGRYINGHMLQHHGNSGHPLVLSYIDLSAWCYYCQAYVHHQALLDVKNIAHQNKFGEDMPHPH

[3] = target: T1, Protein deacetylase HDAC6; remark: listed apart in the source
[4] = target: T2, Protein deacetylase HDAC6 (Homo sapiens) (UniProt Q9UBN7); details: at 10 µM; remark: listed apart in the source
T2 sequence (whole entry): T1 sequence (Q9UBN7 whole entry)

Row | Molecule | inhibition [1] | IC50 [2] | IC50 [3] | inhibition [4]
1 | FLUPENTIXOL [listing 1 of 2 here] | 89.4% | – | – | –
2 | FLUPENTIXOL [listing 2 of 2 here] | – | 1.55 µM | – | –
3 | PHENYLMERCURIC ACETATE | 60.2% | – | – | –
4 | Oc1ccc(OCc2ccccc2)cc1 [MONOBENZONE] | – | – | 0.989 µM | 86.6%
5 | COc1cccc2c1C(=O)c1c(O)c3c(c(O)c1C2=O)C[C@@](O)(C(=O)CO)C[C@@H]3O[C@H]1C[C@H](N)[C@H](O[C@@H]2CCCCO2)[C@H](C)O1 [PIRARUBICIN] | – | – | 1.26 µM | 94.5%
6 | Cc1ccc(F)c(NC(=O)Nc2ccc(-c3cccc4[nH]nc(N)c34)cc2)c1 [LINIFANIB] | – | – | 1.19 µM | 103%
7 | CN(C)C(=O)Nc1cccc(-c2ccc(N(C)C)cc2)c1 | – | – | 1.61 µM | 96.2%
8 | CC(=O)c1ccc2c(c1)N(CCCN1CCC(CCO)CC1)c1ccccc1S2 [PIPERACETAZINE] | – | – | 2.19 µM | 77.7%
